Measured values published in patent publication US10414754B2, “Indolizine compounds, a process for their preparation and pharmaceutical compositions containing them” (LES LABORATOIRES SERVIER, priority 2013, dated 2019).
Where a name gives a salt, the structure may show the parent alone.

Experiments:
Bcl-2 protein = target: T1, Bcl-2 protein (histag-Bcl-2, UniProtKB P10415) (Homo sapiens, UniProt P10415); experiment: Inhibition of Bcl-2 by the fluorescence polarisation technique; type: binding; conditions: fluorescence polarisation, 2 hours incubation; read-out: IC50 (nM) Bcl-2 FP
T1 construct: His tag
Protocol: The fluorescence polarisation tests were carried out on microplates (384 wells). The Bcl-2 protein, labelled (histag-Bcl-2 such that Bcl-2 corresponds to the UniProtKB® primary accession number: P10415), at a final concentration of 2.50×10^−8 M, is mixed with a fluorescent peptide (Fluorescein-[…]), at a final concentration of 1.00×10^−8M in a buffer solution (Hepes 10 mM, NaCl 150 mM, Tween20 0.05%, pH 7.4), in the presence or absence of increasing concentrations of test compounds. After incubation for 2 hours, the fluorescence polarisation is measured.

[1] = tested on: RS4;11 leukaemia tumour line; experiment: In vitro cytotoxicity (MTT) on RS4;11; type: cell-based; conditions: Homo sapiens; RS4;11 cells, 48 hours exposure
Protocol: The cytotoxicity studies were carried out on the RS4;11 leukaemia tumour line.
The cells are distributed onto microplates and exposed to the test compounds for 48 hours.
The cell viability is then quantified by a colorimetric assay, the Microculture Tetrazolium Assay (Cancer Res., 1987, 47, 939-942).

T1 sequence (P10415 whole entry): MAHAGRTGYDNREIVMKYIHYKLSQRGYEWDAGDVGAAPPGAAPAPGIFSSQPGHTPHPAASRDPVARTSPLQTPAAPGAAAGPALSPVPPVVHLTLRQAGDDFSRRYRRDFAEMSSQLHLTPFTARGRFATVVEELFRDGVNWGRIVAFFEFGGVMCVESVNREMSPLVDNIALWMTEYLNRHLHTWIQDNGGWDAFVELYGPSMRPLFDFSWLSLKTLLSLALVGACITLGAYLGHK

Row | SMILES | IC50 (Bcl-2 protein) [nM] | IC50 [1] [nM]
1 | Cc1ccc(C(=O)N2Cc3ccccc3C[C@H]2CCN2CCOCC2)c(-c2cc(C(=O)N(c3ccccc3)c3ccc(O)cc3)c3n2CCCC3)c1 [Example 19, N-(4-Hydroxyphenyl)-3-(5-methyl-2-{[(3S)-3-[2-(morpholin-4-yl)ethyl]-3,4-dihydroisoquinolin-2(1H)-yl]carbonyl}phenyl)-N-phenyl-5,6,7,8-tetrahydro-indolizine-1-carboxamide hydrochloride] | 8 | 235
2 | C[C@@H]1Cc2ccccc2CN1C(=O)c1cc2c(cc1-c1cc(C(=O)N(c3ccccc3)c3ccc(O)cc3)c3n1CCCC3)OCO2 [Example 40, N-(4-Hydroxyphenyl)-3-(6-{[(3R)-3-methyl-3,4-dihydroisoquinolin-2(1H)-yl]carbonyl}-1,3-benzodioxol-5-yl)-N-phenyl-5,6,7,8-tetrahydroindolizine-1-carboxamide] | 6 | 49
3 | N#Cc1cccc(N(C(=O)c2cc(-c3cc4c(cc3C(=O)N3Cc5ccccc5C[C@H]3CCN3CCOCC3)OCO4)n3c2CCCC3)c2ccc(O)cc2)c1 [Example 23, N-(3-Cyanophenyl)-N-(4-hydroxyphenyl)-3-(6-{[(3S)-3-[2-(morpholin-4-yl)ethyl]-3,4-dihydroisoquinolin-2(1H)-yl]carbonyl}-1,3-benzodioxol-5-yl)-5,6,7,8-tetrahydroindolizine-1-carboxamide hydrochloride] | 3.8 | 9.99

Second part, led by results:

Row | IC50 (Bcl-2 protein) [nM] | SMILES | IC50 [1] [nM]
4 | 4.6 | Cn1ccc2cc(N(C(=O)c3cc(-c4cc5c(cc4C(=O)N4Cc6ccccc6C[C@H]4CCCN4CCOCC4)OCO5)n4c3CCCC4)c3ccc(O)cc3)cnc21 [Example 69, N-(4-Hydroxyphenyl)-N-(1-methyl-1H-pyrrolo[2,3-b]pyridin-5-yl)-3-(6-{[(3R)-3-[3-(morpholin-4-yl)propyl]-3,4-dihydroisoquinolin-2(1H)-yl]carbonyl}-1,3-benzodioxol-5-yl)-5,6,7,8-tetrahydroindolizine-1-carboxamide hydrochloride] | 1.38
5 | 6.6 | Cc1ccc(N(C(=O)c2cc(-c3cc4c(cc3C(=O)N3Cc5ccccc5C[C@H]3C)OCO4)n3ccccc23)c2ccc(O)cc2)cn1 [Example 54, N-(4-Hydroxyphenyl)-3-(6-{[(3R)-3-methyl-3,4-dihydroisoquinolin-2(1H)-yl]carbonyl}-1,3-benzodioxol-5-yl)-N-(6-methylpyridin-3-yl)indolizine-1-carboxamide hydrochloride] | 45
6 | 7 | C[C@@H]1Cc2ccccc2CN1C(=O)c1ccc(F)cc1-c1cc(C(=O)N(c2ccc(O)cc2)c2cnn(C)c2)c2n1CCCC2 [Example 61, 3-(5-Fluoro-2-{[(3R)-3-methyl-3,4-dihydroisoquinolin-2(1H)-yl]-carbonyl}phenyl)-N-(4-hydroxyphenyl)-N-(1-methyl-1H-pyrazol-4-yl)-5,6,7,8-tetrahydroindolizine-1-carboxamide] | 61.3
7 | 12.1 | C[C@@H]1Cc2ccccc2CN1C(=O)c1cc2c(cc1-c1cc(C(=O)N(C)c3ccc(O)cc3)c3n1CCCC3)OCO2 [Example 81, N-(4-Hydroxyphenyl)-N-methyl-3-(6-{[(3R)-3-methyl-3,4-dihydroiso-quinolin-2(1H)-yl]carbonyl}-1,3-benzodioxol-5-yl)-5,6,7,8-tetrahydroindolizine-1-carboxamide] | 778
8 | 8.3 | C[C@@H]1Cc2ccccc2CN1C(=O)c1ccccc1-c1cc(C(=O)N(c2ccncc2)c2ccc(O)cc2)c2ccccn12 [Example 68, N-(4-Hydroxyphenyl)-3-(2-{[(3R)-3-methyl-3,4-dihydroisoquinolin-2(1H)-yl]carbonyl}phenyl)-N-(pyridin-4-yl)indolizine-1-carboxamide hydrochloride] | 82.4
